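Assay format: 96-well plates, 48-hour exposure. GI50: concentration for 50% inhibition of growth.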 The source made the active and inactive calls. No stated cut-off is given here; in the data, active = GI50 up to about 1.1 µM and inactive = higher.
Columns and labels:
Test in all cases: growth of human tumour cells (NCI), 48 h
SK-OV-3 = system: SK-OV-3
HOP-62 = system: HOP-62
LOX IMVI = system: LOX IMVI
U-251 = system: U-251
SF-539 = system: SF-539
ACHN = system: ACHN
HT-29 = system: HT-29
MOLT-4 = system: MOLT-4
NCI-H522 = system: NCI-H522
NCI-H23 = system: NCI-H23
786-0 = system: 786-0
RPMI-8226 = system: RPMI-8226
HOP-92 = system: HOP-92
UACC-257 = system: UACC-257
M14 = system: M14

Row | Structure (SMILES) | GI50 (SK-OV-3) | GI50 (HOP-62) | GI50 (LOX IMVI) | GI50 (U-251) | GI50 (SF-539) | GI50 (ACHN) | GI50 (HT-29) | GI50 (MOLT-4) | GI50 (NCI-H522) | GI50 (NCI-H23) | GI50 (786-0) | GI50 (RPMI-8226) | GI50 (HOP-92) | GI50 (UACC-257) | GI50 (M14)
1 | CCC(=O)OC1CCn2c1nc1c2C(=O)C(C)=C(NC(C)=O)C1=N (configuration not stated) | 2.6 µM (inactive) | 1.83 µM (inactive) | 0.755 µM (active) | 3.74 µM (inactive) | 1.74 µM (inactive) | 1.77 µM (inactive) | 1.61 µM (inactive) | 1.54 µM (inactive) | 1.39 µM (inactive) | 1.77 µM (inactive) | 2.43 µM (inactive) | 2.06 µM (inactive) | 2.21 µM (inactive) | 1.24 µM (inactive) | –
2 | Cn1cnc([N+](=O)[O-])c1Sc1nccn1-c1cccc2ccccc12 | 31.8 µM (inactive) | > 100 µM (inactive) | 13.6 µM (inactive) | 26.2 µM (inactive) | 25.4 µM (inactive) | 26.4 µM (inactive) | 23.9 µM (inactive) | 12.9 µM (inactive) | 8.69 µM (inactive) | 23 µM (inactive) | 48.1 µM (inactive) | 15.8 µM (inactive) | 15.3 µM (inactive) | 27.3 µM (inactive) | 18.8 µM (inactive)
3 | CCN(CC)C(=S)SCC(=O)Nc1nc2c(s1)CCCC2 | > 100 µM (inactive) | > 100 µM (inactive) | 57 µM (inactive) | 70.1 µM (inactive) | > 100 µM (inactive) | > 100 µM (inactive) | 59.8 µM (inactive) | 41.4 µM (inactive) | 28 µM (inactive) | 74.1 µM (inactive) | 60.8 µM (inactive) | > 100 µM (inactive) | 68.2 µM (inactive) | 36.9 µM (inactive) | > 100 µM (inactive)
4 | Cn1cc2ccccc2c1-c1nc(F)nc(OCC(=O)[C@H]2CCC3[C@@H]4CCC5=CC(=O)CC[C@]5(C)C4[C@@H](O)C[C@@]32C)n1 (some centres not stated) | 19.1 µM (inactive) | 22 µM (inactive) | 4.66 µM (inactive) | 19.4 µM (inactive) | 17.8 µM (inactive) | 17.7 µM (inactive) | 21.6 µM (inactive) | 4.83 µM (inactive) | 15.2 µM (inactive) | 7.78 µM (inactive) | 16.5 µM (inactive) | 6.61 µM (inactive) | 19.8 µM (inactive) | 18.8 µM (inactive) | 20.3 µM (inactive)
5 | O=C1CC[C@@H](S(=O)(=O)c2ccccc2)[C@H](/C=C/c2ccccc2)O1 | > 100 µM (inactive) | > 100 µM (inactive) | > 100 µM (inactive) | > 100 µM (inactive) | > 100 µM (inactive) | > 100 µM (inactive) | > 100 µM (inactive) | > 100 µM (inactive) | > 100 µM (inactive) | > 100 µM (inactive) | > 100 µM (inactive) | > 100 µM (inactive) | – | > 100 µM (inactive) | > 100 µM (inactive)
6 | COc1ccc2occ(CCC(=O)O)c2c1 | > 100 µM (inactive) | > 100 µM (inactive) | > 100 µM (inactive) | > 100 µM (inactive) | > 100 µM (inactive) | > 100 µM (inactive) | > 100 µM (inactive) | > 100 µM (inactive) | – | > 100 µM (inactive) | > 100 µM (inactive) | > 100 µM (inactive) | > 100 µM (inactive) | > 100 µM (inactive) | > 100 µM (inactive)
7 | NC(=O)c1ccccc1NC(=O)C(=O)C(C(=O)c1ccc(Cl)c(Cl)c1)C1OC(=O)c2ccccc21 (configuration not stated) | – | 43.8 µM (inactive) | – | 30.8 µM (inactive) | – | 59.3 µM (inactive) | 34.8 µM (inactive) | > 100 µM (inactive) | – | 39.5 µM (inactive) | 48.8 µM (inactive) | 69.2 µM (inactive) | 42.8 µM (inactive) | 62.4 µM (inactive) | 61.1 µM (inactive)
8 | O=C(Cn1ccnc1[N+](=O)[O-])c1ccccc1 | > 100 µM (inactive) | > 100 µM (inactive) | > 100 µM (inactive) | – | > 100 µM (inactive) | > 100 µM (inactive) | > 100 µM (inactive) | > 100 µM (inactive) | > 100 µM (inactive) | > 100 µM (inactive) | > 100 µM (inactive) | > 100 µM (inactive) | > 100 µM (inactive) | > 100 µM (inactive) | > 100 µM (inactive)
9 | Nc1nc2c(c(=O)[nH]1)NC(CO)CN2 (configuration not stated) | > 100 µM (inactive) | > 100 µM (inactive) | 19.2 µM (inactive) | > 100 µM (inactive) | > 100 µM (inactive) | 79.4 µM (inactive) | 44.2 µM (inactive) | 37.1 µM (inactive) | > 100 µM (inactive) | > 100 µM (inactive) | > 100 µM (inactive) | > 100 µM (inactive) | – | 24.3 µM (inactive) | > 100 µM (inactive)
10 | Cc1ccc(C)c(NC(=O)CCc2n[nH]c(=S)o2)c1 | – | > 100 µM (inactive) | > 100 µM (inactive) | > 100 µM (inactive) | > 100 µM (inactive) | > 100 µM (inactive) | > 100 µM (inactive) | > 100 µM (inactive) | > 100 µM (inactive) | > 100 µM (inactive) | > 100 µM (inactive) | – | > 100 µM (inactive) | > 100 µM (inactive) | > 100 µM (inactive)
11 | COc1ccc2[nH]c3c4c(cc(-c5ccccc5)c3c2c1)C(=O)N(c1ccccc1)C4=O | 26.3 µM (inactive) | 14.2 µM (inactive) | 16.1 µM (inactive) | 5.98 µM (inactive) | 2 µM (inactive) | > 41.5 µM (inactive) | 22.7 µM (inactive) | 19.5 µM (inactive) | 8.24 µM (inactive) | 31.9 µM (inactive) | 4.9 µM (inactive) | > 60 µM (inactive) | 17.6 µM (inactive) | 35.3 µM (inactive) | 19.3 µM (inactive)
12 | COc1cc2c(c(OC)c1)C(=O)C(=O)C(CC1(C)OCCCO1)=C2 | 16.6 µM (inactive) | 17.5 µM (inactive) | 5.01 µM (inactive) | 15.3 µM (inactive) | 17.5 µM (inactive) | 6.61 µM (inactive) | 18.4 µM (inactive) | 3.27 µM (inactive) | 1.4 µM (inactive) | 9.12 µM (inactive) | 9.1 µM (inactive) | 3.56 µM (inactive) | 1.89 µM (inactive) | 14.1 µM (inactive) | 12 µM (inactive)
13 | CCOC(OCC)c1ccc(/C=C/c2cc(OC)c(OC)c(OC)c2)cc1 | – | 19.8 µM (inactive) | 11.1 µM (inactive) | 16.3 µM (inactive) | 15.8 µM (inactive) | 37.8 µM (inactive) | 16.9 µM (inactive) | – | 25.2 µM (inactive) | – | 23.3 µM (inactive) | 17.1 µM (inactive) | 21.8 µM (inactive) | 20.2 µM (inactive) | 17.7 µM (inactive)
14 | CCOC(=O)/C(C#N)=C(O)/C(=C\c1ccc(Br)cc1)NC(=O)c1ccccc1 | > 100 µM (inactive) | > 100 µM (inactive) | – | > 100 µM (inactive) | > 100 µM (inactive) | > 100 µM (inactive) | > 100 µM (inactive) | > 100 µM (inactive) | – | > 100 µM (inactive) | > 100 µM (inactive) | 22.4 µM (inactive) | > 100 µM (inactive) | > 100 µM (inactive) | > 100 µM (inactive)
15 | COC(=O)c1c2cccccc-2c(Cc2c3cccccc-3c(C(=O)OC)c2O)c1O | > 100 µM (inactive) | > 100 µM (inactive) | > 100 µM (inactive) | > 100 µM (inactive) | > 100 µM (inactive) | > 100 µM (inactive) | > 100 µM (inactive) | > 100 µM (inactive) | > 100 µM (inactive) | > 100 µM (inactive) | > 100 µM (inactive) | > 100 µM (inactive) | > 100 µM (inactive) | > 100 µM (inactive) | > 100 µM (inactive)
16 | CC1Cc2c(N)nc(NN)nc2NC1=O (configuration not stated) | > 100 µM (inactive) | > 100 µM (inactive) | > 100 µM (inactive) | > 100 µM (inactive) | > 100 µM (inactive) | > 100 µM (inactive) | > 100 µM (inactive) | > 100 µM (inactive) | > 100 µM (inactive) | > 100 µM (inactive) | > 100 µM (inactive) | > 100 µM (inactive) | – | > 100 µM (inactive) | > 100 µM (inactive)
17 | CCOc1cc2c(cc1OC)c[n+](C)c1c3cc(OC)c(OC)cc3ccc21 | > 100 µM (inactive) | > 81.7 µM (inactive) | 46.6 µM (inactive) | > 33.4 µM (inactive) | > 100 µM (inactive) | > 100 µM (inactive) | > 100 µM (inactive) | > 81.3 µM (inactive) | > 52.1 µM (inactive) | > 93.5 µM (inactive) | > 42.1 µM (inactive) | 40.7 µM (inactive) | 27 µM (inactive) | > 61.4 µM (inactive) | > 100 µM (inactive)
18 | O=C(O)C1=NN=C(C(=O)O)NN1 | 37.9 µM (inactive) | – | > 100 µM (inactive) | > 100 µM (inactive) | > 100 µM (inactive) | > 100 µM (inactive) | > 100 µM (inactive) | > 100 µM (inactive) | > 100 µM (inactive) | > 100 µM (inactive) | > 100 µM (inactive) | 43.9 µM (inactive) | > 100 µM (inactive) | > 100 µM (inactive) | > 100 µM (inactive)
19 | CC[N+](C)(CC)CC(C)(C)C(=O)/C=C/c1ccc(/C=C/C(=O)C(C)(C)C[N+](C)(CC)CC)cc1 | > 100 µM (inactive) | > 100 µM (inactive) | > 100 µM (inactive) | > 100 µM (inactive) | > 100 µM (inactive) | > 100 µM (inactive) | > 100 µM (inactive) | > 100 µM (inactive) | > 100 µM (inactive) | > 100 µM (inactive) | > 100 µM (inactive) | > 100 µM (inactive) | > 100 µM (inactive) | > 100 µM (inactive) | > 100 µM (inactive)

Source: ChEMBL document CHEMBL1201862, “PubChem BioAssay data set” (2004)
